This is an account of results in US8486957B2, “Chemotherapeutic for inducing an MSH2-dependent apoptotic pathway” (Wake Forest University Health Sciences, priority 2007, dated 2013).

Where two headings read alike, the source gives them in different places.

Assay [1] relates to MSH2-deficient HEC59 cells. The assay is described as follows: Cell viability (MTS) assay, MSH2-deficient cells. The assay is classed as cell-based, human. Conditions: for IC50 / MSH2 dependence of cell death response (words): 24 h exposure; for Fold difference: IC50 MSH2-deficient vs MSH2-proficient cells, 24 h; for MSH2 dependence of cell death response (words): MSH2-deficient vs -proficient cells; for induction of cell death: MSH2-deficient cells. The procedure: (§1) Cells proficient and deficient in MSH2 were exposed to increasing concentrations of the drugs and cell survival determined in an MTS assay. This assay is based on the mitochondrial activity of living cells that reduces the tetrazolium product (MTS) into a formazan product that can be spectrophotometrically analyzed at OD490.
(§2) Cell Viability assays. HEC59 cells and their isogenic counterpart with chromosome 2 transfer were grown in standard growth media of DMEM-F12+10% FBS. Cells were plated in 96 well plates at an appropriate concentration in 100 μl media and incubated overnight. Media was replaced with fresh media containing drug and allowed to incubate for 24 hrs at indicated concentrations. Untreated cells received fresh media containing 0.1% DMSO. One solution reagent (CellTiter 96(r) AQueous One Solution) is added to existing media (20 μl/well) and allowed to incubate 3-4 hrs. A plate reader was used to record the absorbance at 490 nm.
(§3) The CellTiter 96® AQueous One Solution Cell Proliferation Assay® is a colorimetric method for determining the number of viable cells in proliferation, cytotoxicity or chemosensitivity assays. The CellTiter 96® AQueous One Solution Reagent contains a tetrazolium compound [3-(4,5-dimethylthiazol-2-yl)-5-(3-carboxymethoxyphenyl)-2-(4-sulfophenyl)-2H-tetrazolium, inner salt; MTS] and an electron coupling reagent (phenazine ethosulfate; PES). PES has enhanced chemical stability, which allows it to be combined with MTS to form a stable solution. The quantity of formazan product as measured by the amount of 490 nm absorbance is directly proportional to the number of living cells in culture.
(§4) Dose-dependent response to nineteen increasing concentrations of the respective compound was determined, and analyzed for IC50 values using GraphPad Prism 4™. Each compound was analyzed in triplicates.

For assay [2], the system named is MSH2-proficient HEC59 cells with chromosome 2 transfer (HEC59 chr.2). Description: Cell viability (MTS) assay, MSH2-proficient cells. The assay is classed as cell-based, human. As to conditions: for IC50: 24 h exposure; for induction of cell death: MSH2-proficient cells. How it is done: as §1, §2, §3, §4
In assay [3] the test system is MSH2-deficient HEC59 cells. Conditions: 48-72 hours after first exposure; cited from earlier work.
The test system of assay [4] is A2780 cells. The assay is described as follows: MTS assay, platinum sensitive ovarian cancer cells. The assay is classed as cell-based. As to conditions: for cell killing: 10 uM cisplatin, 20 uM rescinnamine, lisinopril. The procedure:
(§5) A2780 is a cisplatinum-sensitive ovarian cancer cell line, […] its isogenic, but cisplatinum-resistant counterpart. Shown are average and standard deviations of a minimum of 3 individual experiments. Results were normalized to the untreated control. FIG. 5: MTS assays of platinum sensitive (A2780) and resistant (A2780cis) cells in the presence of 10 uM cisplatinum and increasing concentrations of rescinnamine. FIG. 6: MTS assay of A2780 and A2780cis ovarian cancer cells, untreated, treated with 10 uM cisplatin, 20 uM rescinnamine and lisinopril.

For assay [5], the system named is A2780cis cells. The assay is described as follows: MTS assay, platinum resistant ovarian cancer cells. The assay is classed as cell-based. As to conditions: for cell killing: 10 uM cisplatin, 20 uM rescinnamine, lisinopril. The procedure: as §5
Background: Formazan colour is commonly taken as a measure of viable cells.

Assay [6] concerns RKO oxa cells. Description: MTS assay, oxaliplatin insensitive colorectal cancer cells. The assay is classed as cell-based. An excerpt: FIG. 7: MTS assay of colorectal cancer cells sensitive (RKO) and insensitive (RKO oxa) to oxaliplatin, treated with oxaliplatin, rescinnamine and combination.
Assay [7] has as its system MSH2/6-dependent cell death. The assay is described as follows: Caspase-3-dependent cell death assay. It counts as cell-based.
The mark [8] stands for this setting: Homo sapiens, MTS, read-out: IC50 MSH2-deficient.
The mark [9] stands for this setting: Homo sapiens, read-out: IC50 in MSH2-deficient cells.
Where [10] appears, read: Homo sapiens, MTS, read-out: IC50 MSH2-proficient.
Setting [11] is: Homo sapiens, read-out: IC50 in MSH2-proficient cells.
The mark [12] stands for this setting: in the presence of 10 uM cisplatinum.

For the compound `COC(=O)[C@H]1[C@H]2C[C@@H]3c4[nH]c5cc(OC)ccc5c4CCN3C[C@H]2C[C@@H](OC(=O)c2ccc3c(c2)OCO3)[C@@H]1OC` [methylendioxy-benzoyl, 3,4-Methylenedioxy benzoyl reserpine], the IC50 (as a rule, the concentration at which inhibition is half-maximal) in assay [1] (setting [8]) is 36 µM; in assay [1] (setting [9]), 36 µM; in assay [2] (setting [10]), 51 µM; in assay [2] (setting [11]), 51 µM. For the same compound, the Fold difference in assay [1] came to 0.71. In addition, the “MSH2 dependence of cell death response (words)” value (shortened to “MSH2 dependence”) in assay [1] was “MSH2-deficient cells show a higher sensitivity”.
On to `COC(=O)[C@H]1[C@H]2C[C@@H]3c4[nH]c5cc(OC)ccc5c4CCN3C[C@H]2C[C@@H](OC(=O)c2cc(OC)cc(OC)c2)[C@@H]1OC` [3,5-dimethoxy benzoyl, 3,5-Dimethoxybenzoyl reserpine], for which the IC50 was determined as 36 µM in assay [1] (setting [8]) and 38 µM in assay [2] (setting [10]). Also, in assay [1], the Fold difference was 0.95.
As for Evodiamine, the “induction of cell death” value in assay [1] and in assay [2] was “no significant cytotoxic effect” throughout.
Turning to `COC(=O)[C@H]1[C@H]2C[C@@H]3c4[nH]c5cc(OC)ccc5c4CCN3C[C@H]2C[C@@H](OC(=O)/C=C/c2ccccc2)[C@@H]1OC` [cinnamoyl reserpine, Cinnamyl reserpine], the IC50 in assay [1] (setting [8]) turned out to be 150 µM; in assay [1] (setting [9]), 150 µM; in assay [2] (setting [10]), 130 µM; in assay [2] (setting [11]), 130 µM. Besides, in assay [1], the Fold difference worked out at 1.2. Also, in assay [1], the “MSH2 dependence” value was “independent of functional MSH2”.
With `COC(=O)[C@H]1[C@H]2C[C@@H]3c4[nH]c5cc(OC)ccc5c4CCN3C[C@H]2C[C@@H](OC(=O)c2ccc(OC)cc2)[C@@H]1OC` [4-methoxy benzoyl, 4-Methoxybenzoyl reserpine], the IC50 amounted to 68 µM in assay [1] (setting [8]) and 67 µM in assay [2] (setting [10]). This compound also registered a Fold difference in assay [1] of 1.01.
The corresponding values for `COC(=O)[C@H]1[C@H]2C[C@@H]3c4[nH]c5cc(OC)ccc5c4CCN3C[C@H]2C[C@@H](OC(=O)c2ccccc2)[C@@H]1OC` [MJG-6-41, Benzoyl resperine] are 110 µM, 132 µM and 0.83.
With `COC(=O)[C@H]1[C@H]2C[C@@H]3c4[nH]c5cc(OC)ccc5c4CCN3C[C@H]2C[C@@H](O)[C@@H]1OC` [Methyl Reserpate, Methyl reserpate], in assay [1], the “induction of cell death” value is “only weakly induces cell death” and the “MSH2 dependence” value is “no preference for either cell line”. Also, the “induction of cell death” value in assay [2] is “only weakly induces cell death”.
Consider `COC(=O)[C@H]1[C@H]2C[C@@H]3c4[nH]c5ccccc5c4CCN3C[C@H]2C[C@@H](OC(=O)c2cc(OC)c(OC)c(OC)c2)[C@@H]1OC` [deserpidine], for which the 50% inhibitory concentration (IC50) worked out at 59 µM in assay [1] (setting [8]), 56 µM in assay [1] (setting [9]), 48 µM in assay [2] (setting [10]) and 49 µM in assay [2] (setting [11]). For the same compound, in assay [1], the Fold difference amounted to 1.2. Also, the “MSH2 dependence” value in assay [1] is “no significant specificity for the presence of MSH2”.
Consider `COC(=O)[C@H]1[C@H]2C[C@@H]3c4[nH]c5cc(OC)ccc5c4CCN3C[C@H]2C[C@@H](OC(=O)c2cccc(OC)c2)[C@@H]1OC` [3-methoxy benzoyl, 3-Methoxybenzoyl reserpine], for which the values for the IC50 in assay [1] (setting [8]) and in assay [2] (setting [10]) were 83 µM and 88 µM, respectively. The Fold difference in assay [1] was 0.94.
Regarding `COC(=O)[C@H]1[C@H]2C[C@@H]3c4[nH]c5cc(OC)ccc5c4CCN3C[C@H]2C[C@@H](OC(=O)c2cc(OC)c(OC)c(OC)c2)[C@@H]1OC` [reserpine], the IC50 in assay [1] (setting [8]) worked out at 93 µM; in assay [2] (setting [10]), 61 µM; in assay [2] (setting [11]), 61 µM. The compound further came in with a Fold difference in assay [1] of 1.5. The “MSH2 dependence” value is given as “robust MSH2-dependent cell death response” in assay [1] and “significant increase in resistance” in assay [1] (listed as Reserpine).
On to `COC(=O)[C@H]1[C@H]2C[C@@H]3c4[nH]c5cc(OC)ccc5c4CCN3C[C@H]2C[C@@H](OC(=O)c2ccc(OC)c(OC)c2)[C@@H]1OC` [3,4-dimethoxy benzoyl, 3,4-Dimethoxybenzoyl reserpine], for which the IC50 amounted to 85 µM in assay [1] (setting [8]), 85 µM in assay [1] (setting [9]), 66 µM in assay [2] (setting [10]) and 66 µM in assay [2] (setting [11]). In addition, the Fold difference in assay [1] came out at 1.3. Besides, in assay [1], the “MSH2 dependence” value is recorded as “significant MSH2-dependent cell death response”.
For the compound `N.N.[Cl][Pt][Cl]` [cisplatin], the IC50 in assay [1] (MTS, read-out: IC50 MSH2-deficient) was 75 µM. In assay [1], the Fold difference was determined as 1.6 and the “MSH2 dependence” value was “only a weak difference”. The IC50 in assay [2] (MTS, read-out: IC50 MSH2-proficient) came out at 47 µM. Besides, the “increase in resistance in MSH2-deficient cells, late response” value in assay [3] is listed as “two- to four-fold increase in resistance”.
Take `COC(=O)[C@H]1[C@H]2C[C@@H]3c4[nH]c5cc(OC)ccc5c4CCN3C[C@H]2C[C@@H](OC(=O)/C=C/c2cc(OC)c(OC)c(OC)c2)[C@@H]1OC` [rescinnamine]: the half-maximal inhibitory concentration (IC50) is 87 µM in assay [1] (setting [8]), 39 µM in assay [2] (setting [10]) and 39 µM in assay [2] (setting [11]). The Fold difference in assay [1] came out at 2.6. Moreover, in assay [1], the “MSH2 dependence” value is given as “robust MSH2-dependent cell death response”. Also, the “MSH2-dependent induction of cell death relative to reserpine” value in assay [2] was “roughly 2 fold”. Further, the entries for the “cell killing” value in assay [4] and in assay [5] were “more effective in sensitive ovarian cancer cells than cisplatinum” and “overcoming cisplatinum resistance”, respectively. Further, the “cell death with increasing concentrations of rescinnamine” value is reported as “concentration-dependent, significant cell death” in assay [4] (setting [12]) and “concentration-dependent, significant cell death” in assay [5] (setting [12]). For the same compound, in assay [6], the “overcoming oxaliplatin resistance” value is “overcomes oxaliplatin resistance, albeit not to the same extent as cisplatinum resistance”. In addition, the “induction of MSH2/6-dependent cell death” value in assay [7] was “induces the targeted, MSH2/6-dependent cell death”.
Take `NCCCC[C@H](N[C@@H](CCc1ccccc1)C(=O)O)C(=O)N1CCC[C@H]1C(=O)O` [lisinopril]: the “cell killing” value in assay [4] and in assay [5] was “does not show the same effect” throughout.
